Test results: US20250051277A1, “DELIVERY OF THERAPEUTIC ALKALOID COMPOUNDS” (Sensorium Therapeutics, Inc., priority 2021, published 2025)
Read-outs that look alike come from different tables or passages of the source.

Columns and labels:
[1] = 5 μM
[2] = type: physicochemical; settings: DI water, 25° C., 0.5 mM
[3] = type: physicochemical; settings: SGF with pepsin, pH 1.5, 37° C., 0.5 mM
[4] = 5 μM; remark: listed apart in the source
[5] = 10 μM
Method: (§1) 50 μL aliquots of positive controls and test compounds spiked into rat or human plasma (n=2) were added to a pre-warmed plate (37° C.) and shaken at 50 rpm. At each respective time point, the reaction was stopped by adding 500 μL of acetonitrile containing internal standards (100 nM aprozolam, 200 nM caffeine, 100 nM tolbutamide). All samples were vortexed for 10 minutes, followed by centrifugation at 3,220 g for 30 minutes to precipitate proteins. 100 μL of the supernatant is transferred to a new plate. The supernatant will be diluted with ultrapure water according to the LC-MS signal response and peak shape.

[6] = Plasma Stability Assay of Example A3, mouse plasma; settings: 5 μM, 37° C., % of prodrug compound remaining
[7] = 10 μM; remark: listed apart in the source
Method: as §1

[8] = Plasma Stability Assay of Example A3, human plasma; settings: 5 μM, 37° C., % of prodrug compound remaining

Compound: COc1ccc([C@@]23CCC(=NNC(=O)Nc4ccc(C(=O)O)cc4)C[C@@H]2N(C)CC3)cc1OC (racemic) [Compound 259, 4-[[[(3aS,7aS)-3a-(3,4-dimethoxyphenyl)-1-methyl-2,3,4,5,7,7a-hexahydroindol-6-ylidene]amino]carbamoylamino]benzoic acid]
- Mouse Plasma Prodrug (%) ([1]; 0 min): 100%
- Mouse Plasma Prodrug (%) ([1]; 15 min): 86.2%
- Mouse Plasma Prodrug (%) ([1]; 30 min): 81.0%
- Mouse Plasma Prodrug (%) ([1]; 60 min): 67.6%
- Mouse Plasma Prodrug (%) ([1]; 120 min): 38.7%
- Mouse Plasma Prodrug (%) ([1]; 240 min): 19.8%
- Condition 2 Conversion (%) ([2]; time 1 min): 0%
- Condition 2 Conversion (%) ([2]; time 5 min): 0%
- Condition 2 Conversion (%) ([2]; time 30 min): 0%
- Condition 2 Conversion (%) ([2]; time 1 h): 2%
- Condition 2 Conversion (%) ([2]; time 4 h): 4.3%
- Condition 2 Conversion (%) ([2]; time 24 h): 7.8%
- Condition 1 Conversion (%) ([3]; time 1 min): 3.6%
- Condition 1 Conversion (%) ([3]; time 5 min): 4.1%
- Condition 1 Conversion (%) ([3]; time 30 min): 16.5%
- Condition 1 Conversion (%) ([3]; time 1 h): 25%
- Condition 1 Conversion (%) ([3]; time 4 h): 29.5%
- Condition 1 Conversion (%) ([3]; time 24 h): 31.9%
- Human Plasma Prodrug (%) ([4]; 0 min): 100%
- Human Plasma Prodrug (%) ([4]; 15 min): >99%
- Human Plasma Prodrug (%) ([4]; 30 min): 96.6%
- Human Plasma Prodrug (%) ([4]; 60 min): 85.7%
- Human Plasma Prodrug (%) ([4]; 120 min): 70.0%
- Human Plasma Prodrug (%) ([4]; 240 min): 54.3%

Compound: COc1ccc([C@@]23CCC(OC(=O)c4ccccc4C)=C[C@@H]2N(C)CC3)cc1OC [Compound 298, [(3aS,7aS)-3a-(3,4-dimethoxyphenyl)-1-methyl-3,4,5,7a-tetrahydro-2H-indol-6-yl]2-methylbenzoate]
- Mouse Plasma Compound 001 (%) ([1]; 15 min): 34.0%
- Mouse Plasma Compound 001 (%) ([1]; 30 min): 44.5%
- Mouse Plasma Compound 001 (%) ([1]; 60 min): 60.1%
- Mouse Plasma Compound 001 (%) ([1]; 120 min): 64.3%
- Mouse Plasma Compound 001 (%) ([1]; 240 min): 64.8%
- Condition 2 Conversion (%) ([2]; time 1 min): 0%
- Condition 2 Conversion (%) ([2]; time 5 min): 0%
- Condition 2 Conversion (%) ([2]; time 30 min): 0%
- Condition 2 Conversion (%) ([2]; time 1 h): 0%
- Condition 2 Conversion (%) ([2]; time 4 h): 0%
- Condition 2 Conversion (%) ([2]; time 24 h): 0%
- Condition 1 Conversion (%) ([3]; time 1 min): 0%
- Condition 1 Conversion (%) ([3]; time 5 min): 0%
- Condition 1 Conversion (%) ([3]; time 30 min): 0%
- Condition 1 Conversion (%) ([3]; time 1 h): 0%
- Condition 1 Conversion (%) ([3]; time 4 h): 0%
- Condition 1 Conversion (%) ([3]; time 24 h): 0%
- Human Plasma Prodrug (%) ([4]; 0 min): 100.0%
- Human Plasma Prodrug (%) ([4]; 15 min): >99%
- Human Plasma Prodrug (%) ([4]; 60 min): 97.5%
- Human Plasma Prodrug (%) ([4]; 240 min): 90.9%

Compound: COc1ccc([C@@]23CCC(OC(=O)c4ccc(C(C)C)cc4)=C[C@@H]2N(C)CC3)cc1OC [Compound 371, (3aS,7aS)-3a-(3,4-dimethoxyphenyl)-1-methyl-2,3,3a,4,5,7a-hexahydro-1H-indol-6-yl4-isopropylbenzoate]
- Mouse Plasma Compound 001 (%) ([1]; 0 min): 28.4%
- Mouse Plasma Compound 001 (%) ([1]; 15 min): 31.54%
- Mouse Plasma Compound 001 (%) ([1]; 30 min): 29.63%
- Mouse Plasma Compound 001 (%) ([1]; 60 min): 30.25%
- Mouse Plasma Compound 001 (%) ([1]; 120 min): 26.59%
- Mouse Plasma Compound 001 (%) ([1]; 240 min): 19.82%
- Prodrug (%) remaining, Human Plasma ([5]; 0 h): 100.0%
- Prodrug (%) remaining, Human Plasma ([5]; 10 min): >99%
- Prodrug (%) remaining, Human Plasma ([5]; 0.5 h): 94.4%
- Prodrug (%) remaining, Human Plasma ([5]; 1 h): 90.7%
- Prodrug (%) remaining, Human Plasma ([5]; 2 h): 91.3%
- Prodrug (%) remaining, Human Plasma ([5]; 4 h): 78.0%
- Mouse Plasma Prodrug (%) ([6]; 0 min): 100%
- Mouse Plasma Prodrug (%) ([6]; 15 min): 10%
- Mouse Plasma Prodrug (%) ([6]; 30 min): 0%
- Mouse Plasma Prodrug (%) ([6]; 60 min): 0%
- Mouse Plasma Prodrug (%) ([6]; 120 min): 0%
- Mouse Plasma Prodrug (%) ([6]; 240 min): 0%
- Prodrug (%) remaining, Rat Plasma ([7]; 0 h): 100.0%
- Prodrug (%) remaining, Rat Plasma ([7]; 10 min): 5.0%
- Prodrug (%) remaining, Rat Plasma ([7]; 0.5 h): 0.2%
- Prodrug (%) remaining, Rat Plasma ([7]; 1 h): 0.1%
- Prodrug (%) remaining, Rat Plasma ([7]; 2 h): 0.0%
- Prodrug (%) remaining, Rat Plasma ([7]; 4 h): 0.0%
- Human Plasma Compound 001 (%) ([4]; 0 min): 0.00%
- Human Plasma Compound 001 (%) ([4]; 60 min): 2.67%
- Human Plasma Compound 001 (%) ([4]; 120 min): 5.08%
- Human Plasma Compound 001 (%) ([4]; 240 min): 3.85%
- Human Plasma Prodrug (%) ([8]; 0 min): 100%
- Human Plasma Prodrug (%) ([8]; 15 min): 99%
- Human Plasma Prodrug (%) ([8]; 30 min): 92%
- Human Plasma Prodrug (%) ([8]; 60 min): 87%
- Human Plasma Prodrug (%) ([8]; 120 min): 78%
- Human Plasma Prodrug (%) ([8]; 240 min): 27%

Compound: COc1ccc([C@@]23CCC(OC(=O)c4c(C)cccc4C)=C[C@@H]2N(C)CC3)cc1OC [Compound 372, (3aS,7aS)-3a-(3,4-dimethoxyphenyl)-1-methyl-2,3,3a,4,5,7a-hexahydro-1H-indol-6-yl2,6-dimethylbenzoate]
- Mouse Plasma Compound 001 (%) ([1]; 0 min): 0%
- Prodrug (%) remaining, Human Plasma ([5]; 0 h): 100.0%
- Prodrug (%) remaining, Human Plasma ([5]; 10 min): >99%
- Prodrug (%) remaining, Human Plasma ([5]; 0.5 h): >99%
- Prodrug (%) remaining, Human Plasma ([5]; 1 h): >99%
- Prodrug (%) remaining, Human Plasma ([5]; 2 h): >99%
- Prodrug (%) remaining, Human Plasma ([5]; 4 h): >99%
- Mouse Plasma Prodrug (%) ([6]; 0 min): 100%
- Mouse Plasma Prodrug (%) ([6]; 15 min): 92%
- Mouse Plasma Prodrug (%) ([6]; 30 min): 91%
- Mouse Plasma Prodrug (%) ([6]; 60 min): 88%
- Mouse Plasma Prodrug (%) ([6]; 120 min): 73%
- Mouse Plasma Prodrug (%) ([6]; 240 min): 64%
- Prodrug (%) remaining, Rat Plasma ([7]; 0 h): 100.0%
- Prodrug (%) remaining, Rat Plasma ([7]; 10 min): >99%
- Prodrug (%) remaining, Rat Plasma ([7]; 0.5 h): >99%
- Prodrug (%) remaining, Rat Plasma ([7]; 1 h): >99%
- Prodrug (%) remaining, Rat Plasma ([7]; 2 h): 98.4%
- Prodrug (%) remaining, Rat Plasma ([7]; 4 h): >99%
- Human Plasma Compound 001 (%) ([4]; 0 min): 0.00%
- Human Plasma Prodrug (%) ([8]; 0 min): 100%
- Human Plasma Prodrug (%) ([8]; 15 min): 97%
- Human Plasma Prodrug (%) ([8]; 30 min): 99%
- Human Plasma Prodrug (%) ([8]; 60 min): 94%
- Human Plasma Prodrug (%) ([8]; 120 min): 81%
- Human Plasma Prodrug (%) ([8]; 240 min): 38%
